Laboratory results taken from the supplement of paper PMC4862054.

Columns and labels:
Conditions in all cases: 72 h
[1] = tested on: CAL-148
Method in brief: (§1)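 After 72 h on 384-well plates pre-loaded with compound in 5 µl medium, breast cancer cell lines seeded in 20 µl were assayed for viability with 2.5 µl CellTiter-Blue at 37 °C for 2 h, read at 560/590 nm. Each plate was quality-checked by Z'-factor and normalised to vehicle and a positive kill control. EC50 comes from the fitted percent-inhibition dose-response curve, censored at the top concentration, and rows scoring zero for drug sensitivity were left out.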

[2] = tested on: CAL-85-1
Method in brief: as §1

[3] = tested on: CAL-51
Method in brief: as §1

[4] = tested on: HDQ-P1
Method in brief: as §1

[5] = tested on: DU-4475
Method in brief: as §1

[6] = tested on: MDA-MB-453
Method in brief: as §1

[7] = tested on: BT-474
Method in brief: as §1

[8] = tested on: SK-BR-3
Method in brief: as §1

[9] = tested on: MDA-MB-436
Method in brief: as §1

[10] = tested on: BT-549
Method in brief: as §1

[11] = tested on: HCC1143
Method in brief: as §1

[12] = tested on: Hs578T
Method in brief: as §1

[13] = tested on: MDA-MB-468
Method in brief: as §1

[14] = tested on: MFM-223
Method in brief: as §1

[15] = tested on: SK-BR-3; remark: listed apart in the source
Method in brief: (§2)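 Per-plate normalisation used 0.1 % DMSO and a positive kill control. Breast cancer cell lines (20 µl suspension) were seeded into 384-well plates containing compound at 5 concentrations in 10-fold steps across a compound-specific 10,000-fold range, incubated for 72 h, and read first for CellTox Green fluorescence (485/520 nm), then for CellTiter-Glo luminescence. EC50 was fitted from the dose-response curves and censored at the top concentration.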

[16] = tested on: MDA-MB-436; remark: listed apart in the source
Method in brief: as §2

[17] = tested on: MDA-MB-231
Method in brief: as §2

[18] = tested on: CAL-85-1; remark: listed apart in the source
Method in brief: as §2

[19] = tested on: MCF-10A
Method in brief: as §2

[20] = tested on: BT-549; remark: listed apart in the source
Method in brief: as §2

[21] = tested on: HCC1599
Method in brief: as §2

[22] = tested on: HCC1143; remark: listed apart in the source
Method in brief: as §2

[23] = tested on: CAL-120
Method in brief: as §2

[24] = tested on: Hs578T; remark: listed apart in the source
Method in brief: as §2

[25] = tested on: HDQ-P1; remark: listed apart in the source
Method in brief: as §2

[26] = tested on: HCC1937
Method in brief: as §2

[27] = tested on: MDA-MB-453; remark: listed apart in the source
Method in brief: as §2

[28] = tested on: MDA-MB-231; remark: listed apart in the source
Method: (§3)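 Drug sensitivity and resistance testing (DSRT) of breast cancer cell lines in 384-well plates, 5 concentrations in 10-fold dilutions over a compound-specific 10,000-fold range. After 72 h, cytotoxicity was read by CellTox Green fluorescence and viability by CellTiter-Glo luminescence (multiplexed), normalised to DMSO and benzethonium chloride controls. EC50 is the inflection point of the fitted dose-response curve (bottom asymptote free, so it can be relative for partial curves) and is censored at the highest tested concentration. Rows with DSS 0 (no meaningful response) were excluded.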

[29] = tested on: CAL-85-1; remark: listed apart in the source
Method: as §3

[30] = tested on: CAL-51; remark: listed apart in the source
Method: as §3

[31] = tested on: Hs578T; remark: listed apart in the source
Method: as §3

[32] = tested on: MDA-MB-468; remark: listed apart in the source
Method: as §3

[33] = tested on: HCC1599; remark: listed apart in the source
Method in brief: as §1

[34] = tested on: CAL-148; remark: listed apart in the source
Method in brief: as §2

[35] = tested on: DU-4475; remark: listed apart in the source
Method in brief: as §2

[36] = tested on: MFM-223; remark: listed apart in the source
Method in brief: as §2

[37] = tested on: BT-474; remark: listed apart in the source
Method: as §3

[38] = tested on: CAL-148; remark: listed apart in the source
Method: as §3

[39] = tested on: MCF-10A; remark: listed apart in the source
Method: as §3

[40] = tested on: HCC1143; remark: listed apart in the source
Method: as §3

[41] = tested on: CAL-120; remark: listed apart in the source
Method: as §3

[42] = tested on: HDQ-P1; remark: listed apart in the source
Method: as §3

[43] = tested on: DU-4475; remark: listed apart in the source
Method: as §3

[44] = tested on: HCC1937; remark: listed apart in the source
Method: as §3

Cc1ccc(C(=O)N(CCCN)[C@@H](c2oc3cc(Cl)ccc3c(=O)c2Cc2ccccc2)C(C)C)cc1
EC50, CellTiter-Blue viability [1]: 0.00581 µM
EC50, CellTiter-Blue viability [2]: 0.00495 µM
EC50, CellTiter-Blue viability [3]: 0.00653 µM
EC50, CellTiter-Blue viability [4]: 0.00234 µM
EC50, CellTiter-Blue viability [5]: 0.00862 µM
EC50, CellTiter-Blue viability [6]: 0.00576 µM
EC50, CellTiter-Blue viability [7]: 0.00438 µM
EC50, CellTiter-Blue viability [8]: 0.00074 µM
EC50, CellTiter-Blue viability [9]: 0.00255 µM
EC50, CellTiter-Blue viability [10]: 0.00183 µM
EC50, CellTiter-Blue viability [11]: 0.00209 µM
EC50, CellTiter-Blue viability [12]: 0.00405 µM
EC50, CellTiter-Blue viability [13]: 0.00188 µM
EC50, CellTiter-Blue viability [14]: 0.00375 µM

NC(=O)Nc1cc(-c2cccc(F)c2)sc1C(=O)N[C@H]1CCCNC1 [AZD7762]
EC50, CellTiter-Glo [15]: 0.458 µM
EC50, CellTiter-Glo [16]: 0.237 µM
EC50, CellTiter-Glo [17]: 0.193 µM
EC50, CellTiter-Glo [18]: 0.112 µM
EC50, CellTiter-Glo [19]: 0.499 µM
EC50, CellTiter-Glo [20]: 0.131 µM
EC50, CellTiter-Glo [21]: 0.236 µM
EC50, CellTiter-Glo [22]: 0.361 µM
EC50, CellTiter-Glo [23]: 0.255 µM
EC50, CellTiter-Glo [24]: 0.467 µM
EC50, CellTiter-Glo [25]: 0.57 µM
EC50, CellTiter-Glo [26]: 0.593 µM
EC50, CellTiter-Glo [27]: 0.672 µM
EC50, CellTox Green [28]: 0.745 µM
EC50, CellTox Green [29]: 0.0758 µM
EC50, CellTox Green [30]: 0.5 µM
EC50, CellTox Green [31]: 0.00265 µM
EC50, CellTox Green [32]: 0.0265 µM

NC(=O)Nc1cc(-c2cccc(F)c2)sc1C(=O)N[C@H]1CCCNC1 [AZD 7762]
EC50, CellTiter-Blue viability [1]: 0.661 µM
EC50, CellTiter-Blue viability [2]: 0.215 µM
EC50, CellTiter-Blue viability [3]: 0.564 µM
EC50, CellTiter-Blue viability [4]: 0.508 µM
EC50, CellTiter-Blue viability [5]: 0.619 µM
EC50, CellTiter-Blue viability [6]: 0.232 µM
EC50, CellTiter-Blue viability [8]: 0.364 µM
EC50, CellTiter-Blue viability [9]: 0.333 µM
EC50, CellTiter-Blue viability [10]: 0.67 µM
EC50, CellTiter-Blue viability [33]: 0.0877 µM
EC50, CellTiter-Blue viability [11]: 0.705 µM
EC50, CellTiter-Blue viability [12]: 0.211 µM
EC50, CellTiter-Blue viability [13]: 0.61 µM

CO[C@H]1/C=C\C=C(/C)C(=O)NC2=CC(=O)C(NCCN(C)C)=C(C[C@@H](C)C[C@H](OC)[C@H](O)[C@@H](C)/C=C(\C)[C@@H]1OC(N)=O)C2=O [Alvespimycin]
EC50, CellTiter-Glo [15]: 0.011 µM
EC50, CellTiter-Glo [34]: 0.0387 µM
EC50, CellTiter-Glo [16]: 0.0113 µM
EC50, CellTiter-Glo [17]: 0.0462 µM
EC50, CellTiter-Glo [18]: 0.0418 µM
EC50, CellTiter-Glo [19]: 0.0408 µM
EC50, CellTiter-Glo [20]: 0.00813 µM
EC50, CellTiter-Glo [21]: 0.0915 µM
EC50, CellTiter-Glo [22]: 0.0348 µM
EC50, CellTiter-Glo [23]: 0.0462 µM
EC50, CellTiter-Glo [24]: 0.0457 µM
EC50, CellTiter-Glo [25]: 0.0302 µM
EC50, CellTiter-Glo [35]: 0.034 µM
EC50, CellTiter-Glo [26]: 0.0441 µM
EC50, CellTiter-Glo [27]: 0.0198 µM
EC50, CellTiter-Glo [36]: 0.0176 µM
EC50, CellTox Green [37]: 0.0773 µM
EC50, CellTox Green [38]: 0.045 µM
EC50, CellTox Green [28]: 0.171 µM
EC50, CellTox Green [29]: 0.187 µM
EC50, CellTox Green [39]: 0.0379 µM
EC50, CellTox Green [40]: 0.138 µM
EC50, CellTox Green [30]: 0.0358 µM
EC50, CellTox Green [41]: > 1 µM
EC50, CellTox Green [31]: 0.242 µM
EC50, CellTox Green [42]: 0.0122 µM
EC50, CellTox Green [32]: 0.682 µM
EC50, CellTox Green [43]: 0.0266 µM
EC50, CellTox Green [44]: 0.781 µM
EC50, CellTiter-Blue viability [1]: 0.0276 µM
EC50, CellTiter-Blue viability [2]: 0.0352 µM
EC50, CellTiter-Blue viability [3]: 0.0533 µM
EC50, CellTiter-Blue viability [4]: 0.0226 µM
EC50, CellTiter-Blue viability [5]: 0.0153 µM
EC50, CellTiter-Blue viability [6]: 0.0112 µM
EC50, CellTiter-Blue viability [7]: 0.0229 µM
EC50, CellTiter-Blue viability [8]: 0.00815 µM
EC50, CellTiter-Blue viability [9]: 0.0199 µM
EC50, CellTiter-Blue viability [10]: 0.00608 µM
EC50, CellTiter-Blue viability [33]: 0.0174 µM
EC50, CellTiter-Blue viability [11]: 0.0262 µM
EC50, CellTiter-Blue viability [12]: 0.00538 µM
EC50, CellTiter-Blue viability [13]: 0.0605 µM
EC50, CellTiter-Blue viability [14]: 0.00878 µM
